{"source": "paper PMC9890585", "about": "(Chemical Science, 2022)", "biological_target": "Concanavalin A (Con A) (Canavalia ensiformis, UniProt P02866)", "format": "biochemical, jack bean (Canavalia ensiformis)", "details": "1000 equiv. added after 180 min", "data": [{"compound": "COC1OC(CO)C(O)C(O)C1O", "note": "[methyl-α-D-mannose]", "values": [{"measurement": "effect of competitive inhibitor on Con A-complex aggregates", "value": "immediate deaggregation"}]}]}
